Experimental data: the NIST ThermoML archive (doi:10.1016/j.jct.2009.04.002)
Values joined by “and” are separate entries in the source; they are usually repeats but may differ in a detail not shown here. Identical values can stand only once.

Settings: Liquid

CC(C)CCCCCCCOC(=O)c1ccccc1C(=O)OCCCCCCCC(C)C
Settings | mass density, SVM3000 rotational viscometer | viscosity, Rotational Automated Viscometer
278.15 K | 977.3 kg/m3 and 977.5 kg/m3 and 977.1 kg/m3 | 404.6 mPa·s and 413.1 mPa·s and 412.2 mPa·s
283.15 K | 973.8 kg/m3 and 974 kg/m3 and 973.5 kg/m3 | 261.2 mPa·s and 267 mPa·s and 266.2 mPa·s
288.15 K | 970.2 kg/m3 and 970.4 kg/m3 and 969.9 kg/m3 | 175.9 mPa·s and 179.4 mPa·s and 178.9 mPa·s
293.15 K | 966.7 kg/m3 and 966.9 kg/m3 and 966.4 kg/m3 | 122.3 mPa·s and 124.5 mPa·s and 124.4 mPa·s
298.15 K | 963.2 kg/m3 and 963.4 kg/m3 and 962.9 kg/m3 | 87.52 mPa·s and 89.06 mPa·s and 88.94 mPa·s
303.15 K | 959.7 kg/m3 and 959.8 kg/m3 and 959.4 kg/m3 | 64.31 mPa·s and 65.45 mPa·s and 65.32 mPa·s
308.15 K | 956.2 kg/m3 and 956.3 kg/m3 and 955.9 kg/m3 | 48.46 mPa·s and 49.29 mPa·s and 49.16 mPa·s
313.15 K | 952.7 kg/m3 and 952.8 kg/m3 and 952.4 kg/m3 | 37.35 mPa·s and 37.97 mPa·s and 37.87 mPa·s
318.15 K | 949.2 kg/m3 and 949.3 kg/m3 and 948.9 kg/m3 | 29.38 mPa·s and 29.83 mPa·s and 29.75 mPa·s
323.15 K | 945.7 kg/m3 and 945.8 kg/m3 and 945.3 kg/m3 | 23.51 mPa·s and 23.87 mPa·s and 23.79 mPa·s
328.15 K | 942.2 kg/m3 and 941.8 kg/m3 | 19.13 mPa·s and 19.41 mPa·s and 19.35 mPa·s

Settings | mass density, Vibrating tube method | viscosity, Falling or rolling sphere viscometry
283.15 K, 100 kPa | 973.4 kg/m3 and 973.5 kg/m3 and 973.1 kg/m3 | –
283.15 K, 1000 kPa | 973.7 kg/m3 and 974 kg/m3 and 973.6 kg/m3 | –
283.15 K, 5000 kPa | 975.9 kg/m3 and 976.2 kg/m3 and 975.7 kg/m3 | –
283.15 K, 10000 kPa | 978.4 kg/m3 and 978.8 kg/m3 and 978.3 kg/m3 | –
283.15 K, 20000 kPa | 983.5 kg/m3 and 983.9 kg/m3 and 983.4 kg/m3 | –
283.15 K, 30000 kPa | 988.3 kg/m3 and 988.6 kg/m3 and 988.1 kg/m3 | –
283.15 K, 40000 kPa | 992.8 kg/m3 and 993.1 kg/m3 and 992.7 kg/m3 | –
283.15 K, 50000 kPa | 997.2 kg/m3 and 997.5 kg/m3 and 997 kg/m3 | –
283.15 K, 60000 kPa | 1001.4 kg/m3 and 1001.7 kg/m3 and 1001.3 kg/m3 | –
283.15 K, 70000 kPa | 1005.4 kg/m3 and 1005.8 kg/m3 | –
298.15 K, 100 kPa | 963 kg/m3 and 963.2 kg/m3 and 962.8 kg/m3 | –
298.15 K, 1000 kPa | 963.4 kg/m3 and 963.8 kg/m3 and 963.3 kg/m3 | –
298.15 K, 5000 kPa | 965.7 kg/m3 and 966.1 kg/m3 | –
298.15 K, 10000 kPa | 968.4 kg/m3 and 968.9 kg/m3 and 968.5 kg/m3 | –
298.15 K, 20000 kPa | 973.7 kg/m3 and 974.2 kg/m3 and 973.8 kg/m3 | –
298.15 K, 30000 kPa | 978.7 kg/m3 and 979.1 kg/m3 | –
298.15 K, 40000 kPa | 983.4 kg/m3 and 983.8 kg/m3 | –
298.15 K, 50000 kPa | 988 kg/m3 and 988.3 kg/m3 and 987.9 kg/m3 | –
298.15 K, 60000 kPa | 992.4 kg/m3 and 992.8 kg/m3 and 992.3 kg/m3 | –
298.15 K, 70000 kPa | 996.6 kg/m3 and 997 kg/m3 | –
303.15 K, 100 kPa | – | 65 mPa·s and 64.6 mPa·s
303.15 K, 1000 kPa | – | 66.4 mPa·s and 66 mPa·s
303.15 K, 5000 kPa | – | 72.9 mPa·s and 72.6 mPa·s
303.15 K, 10000 kPa | – | 82 mPa·s and 81.7 mPa·s
303.15 K, 20000 kPa | – | 103 mPa·s
303.15 K, 30000 kPa | – | 130 mPa·s and 129 mPa·s
303.15 K, 40000 kPa | – | 162 mPa·s
303.15 K, 50000 kPa | – | 202 mPa·s and 201 mPa·s
303.15 K, 60000 kPa | – | 251 mPa·s and 250 mPa·s
313.15 K, 100 kPa | – | 38 mPa·s and 38.5 mPa·s
313.15 K, 1000 kPa | – | 38.7 mPa·s and 39.3 mPa·s
313.15 K, 5000 kPa | – | 42.2 mPa·s and 42.8 mPa·s
313.15 K, 10000 kPa | – | 46.9 mPa·s and 47.6 mPa·s
313.15 K, 20000 kPa | – | 57.8 mPa·s and 58.8 mPa·s
313.15 K, 30000 kPa | – | 71.1 mPa·s and 72.4 mPa·s
313.15 K, 40000 kPa | – | 87.2 mPa·s and 88.8 mPa·s
313.15 K, 50000 kPa | – | 107 mPa·s and 109 mPa·s
313.15 K, 60000 kPa | – | 130 mPa·s and 132 mPa·s
323.15 K, 100 kPa | 945.4 kg/m3 and 945.7 kg/m3 and 945.2 kg/m3 | –
323.15 K, 1000 kPa | 945.8 kg/m3 and 946.3 kg/m3 | –
323.15 K, 5000 kPa | 948.4 kg/m3 and 948.8 kg/m3 and 948.3 kg/m3 | –
323.15 K, 10000 kPa | 951.5 kg/m3 and 951.9 kg/m3 and 951.4 kg/m3 | –
323.15 K, 20000 kPa | 957.4 kg/m3 and 957.9 kg/m3 | –
323.15 K, 30000 kPa | 962.9 kg/m3 and 963.3 kg/m3 and 962.8 kg/m3 | –
323.15 K, 40000 kPa | 968.1 kg/m3 and 968.5 kg/m3 and 968 kg/m3 | –
323.15 K, 50000 kPa | 973.1 kg/m3 and 973.4 kg/m3 and 973 kg/m3 | –
323.15 K, 60000 kPa | 977.8 kg/m3 and 978.1 kg/m3 and 977.7 kg/m3 | –
323.15 K, 70000 kPa | 982.3 kg/m3 and 982.6 kg/m3 and 982.2 kg/m3 | –
333.15 K, 100 kPa | 938.4 kg/m3 and 938.7 kg/m3 and 938.2 kg/m3 | 16.1 mPa·s and 15.5 mPa·s and 16 mPa·s
333.15 K, 1000 kPa | 938.9 kg/m3 and 939.3 kg/m3 and 938.8 kg/m3 | 16.4 mPa·s and 15.7 mPa·s and 16.3 mPa·s
333.15 K, 5000 kPa | 941.6 kg/m3 and 942 kg/m3 and 941.5 kg/m3 | 17.7 mPa·s and 17 mPa·s and 17.6 mPa·s
333.15 K, 10000 kPa | – | 19.5 mPa·s and 18.6 mPa·s and 19.3 mPa·s
